From patent publication US20100003250A1, “(2-ARYL-7H-PYRROLO[2,3-D]PYRIMIDIN-4-YL)MORPHOLINE COMPOUNDS, THEIR USE AS MTOR KINASE AND PI3 KINASE INHIBITORS, AND THEIR SYNTHESES” (Wyeth, priority 2008, published 2010)

Tests used:
Format in all cases: biochemical
mTOR Kinase (FLAG-TOR) = biological target: T1, mTOR Kinase (FLAG-TOR) (Homo sapiens, UniProt P42345); test: mTOR kinase assay, purified enzyme, DELFIA format; conditions: 100 μM ATP, 1.25 μM His6-S6K; read-out: mTOR Kinase Median IC50
T1 construct: FLAG

PI3Kα = PI3Kα (Homo sapiens, UniProt P42336); test: PI3K-alpha fluorescence polarization assay; conditions: 20 μM PIP2, 25 μM ATP; read-out: PI3Kα Median IC50
Sequence of PI3Kα (P42336 whole entry, species assumed): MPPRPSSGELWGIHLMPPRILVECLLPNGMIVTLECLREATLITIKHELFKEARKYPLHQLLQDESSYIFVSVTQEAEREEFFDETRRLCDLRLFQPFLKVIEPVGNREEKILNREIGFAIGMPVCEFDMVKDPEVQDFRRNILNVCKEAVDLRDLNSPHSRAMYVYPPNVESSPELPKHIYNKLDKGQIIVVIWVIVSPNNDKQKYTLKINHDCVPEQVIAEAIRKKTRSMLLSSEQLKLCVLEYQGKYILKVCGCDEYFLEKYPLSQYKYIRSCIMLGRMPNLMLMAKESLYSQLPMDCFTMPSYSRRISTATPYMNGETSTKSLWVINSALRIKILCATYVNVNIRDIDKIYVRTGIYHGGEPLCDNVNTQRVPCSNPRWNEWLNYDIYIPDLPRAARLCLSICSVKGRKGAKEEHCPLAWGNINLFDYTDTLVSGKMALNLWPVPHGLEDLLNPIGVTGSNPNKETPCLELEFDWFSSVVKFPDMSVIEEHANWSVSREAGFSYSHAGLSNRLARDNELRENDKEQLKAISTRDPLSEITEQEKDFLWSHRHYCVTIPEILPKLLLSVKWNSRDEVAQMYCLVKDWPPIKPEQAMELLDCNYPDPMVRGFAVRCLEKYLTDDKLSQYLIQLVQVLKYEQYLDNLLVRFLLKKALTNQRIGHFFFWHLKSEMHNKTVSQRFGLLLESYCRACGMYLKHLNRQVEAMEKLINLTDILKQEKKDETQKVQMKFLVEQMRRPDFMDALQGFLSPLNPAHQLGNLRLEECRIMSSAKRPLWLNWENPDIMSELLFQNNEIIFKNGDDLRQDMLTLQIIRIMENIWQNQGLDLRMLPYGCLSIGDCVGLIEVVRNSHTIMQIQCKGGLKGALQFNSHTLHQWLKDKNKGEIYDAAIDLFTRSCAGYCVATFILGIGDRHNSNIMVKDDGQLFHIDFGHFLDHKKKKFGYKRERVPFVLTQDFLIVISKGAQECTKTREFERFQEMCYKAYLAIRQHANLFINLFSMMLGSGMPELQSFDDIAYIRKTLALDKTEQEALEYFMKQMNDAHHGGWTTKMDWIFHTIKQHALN
Sequence of PI3Kα (P27986 whole entry partner, species assumed): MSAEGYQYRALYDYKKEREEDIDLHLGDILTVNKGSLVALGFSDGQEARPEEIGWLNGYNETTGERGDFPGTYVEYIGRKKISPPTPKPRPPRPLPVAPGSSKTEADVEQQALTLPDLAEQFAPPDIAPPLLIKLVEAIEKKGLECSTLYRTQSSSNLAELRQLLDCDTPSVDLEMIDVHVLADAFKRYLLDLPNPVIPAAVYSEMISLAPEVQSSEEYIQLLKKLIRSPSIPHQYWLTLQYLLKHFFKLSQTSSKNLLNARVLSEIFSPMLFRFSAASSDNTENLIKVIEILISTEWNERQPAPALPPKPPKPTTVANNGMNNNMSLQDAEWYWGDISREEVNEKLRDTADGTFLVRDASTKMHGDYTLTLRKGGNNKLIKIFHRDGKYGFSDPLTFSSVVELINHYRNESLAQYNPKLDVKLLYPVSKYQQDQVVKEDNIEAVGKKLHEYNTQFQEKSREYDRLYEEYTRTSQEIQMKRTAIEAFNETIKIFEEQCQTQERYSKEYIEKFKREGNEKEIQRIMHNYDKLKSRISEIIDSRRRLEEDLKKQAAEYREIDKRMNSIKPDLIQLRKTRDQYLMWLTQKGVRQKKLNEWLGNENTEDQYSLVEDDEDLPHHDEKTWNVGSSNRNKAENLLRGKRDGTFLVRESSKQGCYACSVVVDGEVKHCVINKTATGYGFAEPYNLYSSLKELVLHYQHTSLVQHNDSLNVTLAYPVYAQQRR

PI3Kγ = PI3Kγ (Homo sapiens, UniProt P48736); test: PI3K-gamma fluorescence polarization assay; conditions: 20 μM PIP2, 25 μM ATP; read-out: PI3Kγ Median IC50
Sequence of PI3Kγ (P48736 whole entry, species assumed): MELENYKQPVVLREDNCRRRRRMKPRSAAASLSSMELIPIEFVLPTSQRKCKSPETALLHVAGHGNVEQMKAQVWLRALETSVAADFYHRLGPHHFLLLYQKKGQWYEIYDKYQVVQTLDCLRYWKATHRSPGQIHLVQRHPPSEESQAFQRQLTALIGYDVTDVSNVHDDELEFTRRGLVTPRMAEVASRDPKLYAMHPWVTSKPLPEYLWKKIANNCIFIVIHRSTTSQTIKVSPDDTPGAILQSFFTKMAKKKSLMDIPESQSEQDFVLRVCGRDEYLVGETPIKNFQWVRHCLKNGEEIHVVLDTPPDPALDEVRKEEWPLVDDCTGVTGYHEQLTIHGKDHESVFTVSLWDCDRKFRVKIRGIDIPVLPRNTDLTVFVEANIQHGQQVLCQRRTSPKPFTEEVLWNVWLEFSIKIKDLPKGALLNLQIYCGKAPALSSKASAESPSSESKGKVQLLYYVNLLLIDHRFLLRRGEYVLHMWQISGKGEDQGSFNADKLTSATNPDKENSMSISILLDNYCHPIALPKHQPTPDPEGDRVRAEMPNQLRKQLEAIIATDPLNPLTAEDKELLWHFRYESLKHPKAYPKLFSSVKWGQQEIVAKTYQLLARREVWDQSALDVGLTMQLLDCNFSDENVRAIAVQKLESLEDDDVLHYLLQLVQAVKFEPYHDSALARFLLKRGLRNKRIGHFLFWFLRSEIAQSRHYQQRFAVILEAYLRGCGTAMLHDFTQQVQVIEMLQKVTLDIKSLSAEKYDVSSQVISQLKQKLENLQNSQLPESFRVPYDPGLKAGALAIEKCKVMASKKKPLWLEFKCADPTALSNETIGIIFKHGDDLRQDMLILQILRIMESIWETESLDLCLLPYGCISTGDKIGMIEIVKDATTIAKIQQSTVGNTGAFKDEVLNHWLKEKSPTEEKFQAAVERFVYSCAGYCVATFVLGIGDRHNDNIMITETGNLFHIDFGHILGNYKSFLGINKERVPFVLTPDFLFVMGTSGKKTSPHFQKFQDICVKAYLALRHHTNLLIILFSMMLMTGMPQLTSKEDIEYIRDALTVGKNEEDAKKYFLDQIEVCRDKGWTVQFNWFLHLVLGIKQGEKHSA
How it was run: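 Enzyme preincubated with compound in 20 mM HEPES pH 7.5, 2 mM MgCl2, 0.05% CHAPS, 0.01% βME; reaction started with substrate giving 20 μM diC8 PIP2 and 25 μM ATP final, run 30-60 min at room temperature. Stopped with TAMRA-labelled PIP3 detector probe plus GST-GRP; PIP3 formation read by fluorescence polarization after 90-110 min.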

Compound	IC50 (mTOR Kinase (FLAG-TOR)) [nM]	IC50 (PI3Kα) [nM]	IC50 (PI3Kγ) [nM]
CCn1ccc2c(N3CCOCC3)nc(-c3ccc(NC(=O)Nc4ccc(C(=O)N5CCC(N(C)C)CC5)cc4)cc3)nc21 [Compound 65, 1-(4-{[4-(dimethylamino)piperidin-1-yl]carbonyl}phenyl)-3-[4-(7-ethyl-4-morpholin-4-yl-7H-pyrrolo[2,3-d]pyrimidin-2-yl)phenyl]urea]	1.09	1.1	20
CCn1ccc2c(N3CCOCC3)nc(-c3ccc(NC(=O)Nc4ccc(C(=O)NCCN5CCCCC5)cc4)cc3)nc21 [Compound 68, 4-({[4-(7-ethyl-4-morpholin-4-yl-7H-pyrrolo[2,3-d]pyrimidin-2-yl)phenyl]carbamoyl}amino)-N-(2-piperidin-1-ylethyl)benzamide]	0.91	4	61
CCN1CCN(C(=O)c2ccc(NC(=O)Nc3ccc(-c4nc(N5CCOCC5)c5ccn(CC)c5n4)cc3)cc2)CC1 [Compound 70, 1-[4-(7-ethyl-4-morpholin-4-yl-7H-pyrrolo[2,3-d]pyrimidin-2-yl)phenyl]-3-{4-[(4-ethylpiperazin-1-yl)carbonyl]phenyl}urea]	1.5	2.5	21
CCn1ccc2c(N3CCOCC3)nc(-c3ccc(NC(=O)Nc4ccc(C(=O)N5CCSCC5)cc4)cc3)nc21 [Compound 71, 1-[4-(7-ethyl-4-morpholin-4-yl-7H-pyrrolo[2,3-d]pyrimidin-2-yl)phenyl]-3-[4-(thiomorpholin-4-ylcarbonyl)phenyl]urea]	4.2	3.5	39
CCn1ccc2c(N3CCOCC3)nc(-c3ccc(NC(=O)Nc4ccc(C(=O)N5CCC(N6CCCCC6)CC5)cc4)cc3)nc21 [Compound 72, 1-[4-(1,4′-bipiperidin-1′-ylcarbonyl)phenyl]-3-[4-(7-ethyl-4-morpholin-4-yl-7H-pyrrolo[2,3-d]pyrimidin-2-yl)phenyl]urea]	1.4	3.5	28

Further compounds by falling IC50 (mTOR Kinase (FLAG-TOR)), results first:

IC50 (mTOR Kinase (FLAG-TOR)) [nM]	IC50 (PI3Kα) [nM]	IC50 (PI3Kγ) [nM]	Compound
3.35	6.5	35	CCn1ccc2c(N3CCOCC3)nc(-c3ccc(NC(=O)Nc4ccc(C(=O)N5CCN(C6CCCC6)CC5)cc4)cc3)nc21 [Compound 73, 1-{4-[(4-cyclopentylpiperazin-1-yl)carbonyl]phenyl}-3-[4-(7-ethyl-4-morpholin-4-yl-7H-pyrrolo[2,3-d]pyrimidin-2-yl)phenyl]urea]
2.4	3.5	30	CCn1ccc2c(N3CCOCC3)nc(-c3ccc(NC(=O)Nc4ccc(C(=O)N5CCOCC5)cc4)cc3)nc21 [Compound 66, 1-[4-(7-ethyl-4-morpholin-4-yl-7H-pyrrolo[2,3-d]pyrimidin-2-yl)phenyl]-3-[4-(morpholin-4-ylcarbonyl)phenyl]urea]
1.8	< 1.7	13	CCn1ccc2c(N3CCOCC3)nc(-c3ccc(NC(=O)Nc4ccc(C(=O)N5C[C@@H](C)N[C@@H](C)C5)cc4)cc3)nc21 [Compound 64, 1-(4-{[(3R,5S)-3,5-dimethylpiperazin-1-yl]carbonyl}phenyl)-3-[4-(7-ethyl-4-morpholin-4-yl-7H-pyrrolo[2,3-d]pyrimidin-2-yl)phenyl]urea]
0.99	< 1.8	8	CCn1ccc2c(N3CCOCC3)nc(-c3ccc(NC(=O)Nc4ccc(C(=O)N5CCNCC5)cc4)cc3)nc21 [Compound 67, 1-[4-(7-ethyl-4-morpholin-4-yl-7H-pyrrolo[2,3-d]pyrimidin-2-yl)phenyl]-3-[4-(piperazin-1-ylcarbonyl)phenyl]urea]
0.8	2.1	24	CCn1ccc2c(N3CCOCC3)nc(-c3ccc(NC(=O)Nc4ccc(C(=O)N5CCC(N6CCCC6)CC5)cc4)cc3)nc21 [Compound 69, 1-[4-(7-ethyl-4-morpholin-4-yl-7H-pyrrolo[2,3-d]pyrimidin-2-yl)phenyl]-3-{4-[(4-pyrrolidin-1-ylpiperidin-1-yl)carbonyl]phenyl}urea]
